The values that follow come from publication PMC6934184, “Selective DNA-PKcs inhibition extends the therapeutic index of localized radiotherapy and chemotherapy” (The Journal of Clinical Investigation, 2019).

The assay has as its target T1, BTK (Homo sapiens, UniProt Q06187).
T1 construct: purchased Thermo Fisher Scientific (Life Technologies) SelectScreen
Nature of the assay: SelectScreen Z'LYTE. In kind it is biochemical. The procedure, abridged:
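SelectScreen broad panel; activity (Z'LYTE, Adapta) plus binding formats. ATP: Km app for CSF1R Z'LYTE; 10 for CAMK1 Adapta. Readout = % per kinase.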

T1 sequence (Q06187 whole entry): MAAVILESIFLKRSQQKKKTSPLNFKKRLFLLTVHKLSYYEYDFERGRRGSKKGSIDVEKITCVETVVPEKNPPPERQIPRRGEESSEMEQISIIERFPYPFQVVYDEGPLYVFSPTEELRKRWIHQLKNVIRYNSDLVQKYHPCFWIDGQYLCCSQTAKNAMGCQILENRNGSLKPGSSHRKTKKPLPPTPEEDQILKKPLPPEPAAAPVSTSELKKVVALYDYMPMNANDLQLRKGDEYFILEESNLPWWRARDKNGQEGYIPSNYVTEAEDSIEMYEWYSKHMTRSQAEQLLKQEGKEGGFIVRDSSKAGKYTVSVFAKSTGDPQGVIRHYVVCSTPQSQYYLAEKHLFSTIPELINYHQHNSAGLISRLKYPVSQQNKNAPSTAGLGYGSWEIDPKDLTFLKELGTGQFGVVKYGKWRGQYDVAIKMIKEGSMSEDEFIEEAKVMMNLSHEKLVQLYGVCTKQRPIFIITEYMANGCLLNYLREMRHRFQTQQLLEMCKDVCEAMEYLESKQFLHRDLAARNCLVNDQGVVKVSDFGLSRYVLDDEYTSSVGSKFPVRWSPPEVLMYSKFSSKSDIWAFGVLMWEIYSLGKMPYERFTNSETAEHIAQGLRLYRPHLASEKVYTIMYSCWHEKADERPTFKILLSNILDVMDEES

As usually defined, the inhibition is the change of the read-out against control, counted positive when it falls. For the compound `CN(C(=O)CN1CCOCC1)c1ccc2sc3c(-c4cccc5c(=O)cc(N6CC7CCC(C6)O7)oc45)cccc3c2c1` [NU5455], the inhibition at 1 µM is -2%.
